Like-named read-outs stand apart in the source and are kept apart here.
How the values were obtained:
E. coli ATCC 25922 = assay: Minimum inhibitory concentration, ampicillin sensitive strains; format: cell-based, Escherichia coli; settings: for Minimum inhibitory concentrations: E. coli ATCC 25922, Gram-negative, ampicillin sensitive
Method: (§1) Each one of the 24 combinations of the ionic liquids were tested with following 9 bacteria: • Escherichia coli ATCC25922 • Staphylococcus aureus ATCC25923 • Klebsiella pneumonia • Staphylococcus epidermidis • Enterococcus fecalis • E. coli Tem CTXM9 • E. coli CTXM2 • E. coli AmpCMox2 • Saccharomyces cerevisiae PYCC 4072
(§2) These bacteria were tested in Vitek2 systems from bioMérieux. Bacteria were grown on Trypticase soy agar for 24 hours at 37° C. prior to each test. The bacteria assays were made in Tryptic Soy Broth.

K. pneumoniae = assay: as above; format: cell-based, Klebsiella pneumonia; settings: for Minimum inhibitory concentrations: K. pneumoniae, Gram-negative, ampicillin sensitive
Method: as §1, §2

S. aureus ATCC 25923 = assay: as above; format: cell-based, Staphylococcus aureus; settings: for Minimum inhibitory concentrations: S. aureus ATCC 25923, Gram-positive, ampicillin sensitive
Method: as §1, §2

E. fecalis = assay: as above; format: cell-based, Enterococcus fecalis; settings: for Minimum inhibitory concentrations: E. fecalis, Gram-positive, ampicillin sensitive
Method: as §1, §2

S. epidermis = assay: as above; format: cell-based, Staphylococcus epidermidis; settings: for Minimum inhibitory concentrations: S. epidermis, Gram-positive, ampicillin sensitive
Method: as §1, §2

E. coli CTX M2 = assay: Minimum inhibitory concentration, ampicillin resistant strains; format: cell-based; settings: for Minimum inhibitory concentrations: E. coli CTX M2, ampicillin resistant
Method: as §1, §2

E. coli TEM CTX M9 = assay: as above; format: cell-based; settings: for Minimum inhibitory concentrations: E. coli TEM CTX M9, ampicillin resistant
Method: as §1, §2

E. coli AmpC MOX2 = assay: microbe, parasite or virus in culture; format: cell-based; settings: for Minimum inhibitory concentrations: E. coli AmpC MOX2, ampicillin resistant
Method: as §1, §2

SF (skin fibroblasts) = assay: MTT cellular viability/proliferation, primary human cells; format: cell-based; settings: MTT assay
Method: (§3) At about 70-80% confluence, cells were enzymatically detached with 0.05% trypsin and 0.5 mM EDTA and seeded at 10^4 cells cm^−2.
(§4) After an attachment period of 24 hours, the culture medium was renewed, and supplemented with different concentrations (0.005-500 mM) of the ampicillin derived ionic liquid. Cell cultures were maintained in a 5% CO2 humidified atmosphere at 37° C.
(§5) Cellular viability/proliferation was assessed by the MTT assay at days 1, 3 and 5 of the culture. This assay is based on the reduction of 3-(4,5-dimethylthiazol-2-yl)-2,5-diphenyltetrazolium bromide (MTT) to a purple formazan product by viable cells.
(§6) Shortly, cultured cells were incubated at 37° C. with 0.5 mg ml −1 of MTT for 4 hours. The culture medium was then removed; the stained product dissolved with dimethylsulfoxide, and absorbance determined at 550 nm in an ELISA plate rewader. Results were expressed as absorbance per cm2.
(§7) The values of the […] (IC50) and the median lethal dose (LD50) were obtained from nonlinear regression analysis of concentration effect curves using the GGraphPad Prism Software.
(§8) It is used to measure the efficacy of a compound in inhibiting any biochemical or biological function.

[1] = tested on: gingival fibroblasts (GF); assay: as above; format: cell-based; settings: MTT assay
Method: as §3, §4, §5, §6, §7, §8

[2] = tested on: MG63 (osteosarcoma cell line); assay: MTT cellular viability/proliferation, cancer cell lines; format: cell-based, human; settings: MG63, MTT assay
Method: as §3, §4, §5, §6, §7, §8

[3] = tested on: RKO (colon cancer cell line); assay: as above; format: cell-based, human; settings: MTT assay
Method: as §3, §4, §5, §6, §7, §8

[4] = tested on: T47D (ductal breast epithelial tumour cell line); assay: cells; format: cell-based
Method: as §3, §4, §5, §6, §7, §8

[5] = tested on: PC3 (prostate cancer cell line); assay: MTT cellular viability/proliferation, cancer cell lines; format: cell-based, human; settings: PC3, MTT assay
Method: as §3, §4, §5, §6, §7, §8

[6] = tested on: HepG2 (hepatocellular liver carcinoma cell); assay: as above; format: cell-based, human; settings: HepG2, MTT assay
Method: as §3, §4, §5, §6, §7, §8

SMILES	Minimum inhibitory concentrations (E. coli ATCC 25922) [mM]	Minimum inhibitory concentrations (K. pneumoniae) [mM]	Minimum inhibitory concentrations (S. aureus ATCC 25923) [mM]	Minimum inhibitory concentrations (E. fecalis) [mM]	Minimum inhibitory concentrations (S. epidermis) [mM]	Minimum inhibitory concentrations (E. coli CTX M2) [mM]	Minimum inhibitory concentrations (E. coli TEM CTX M9) [mM]	Minimum inhibitory concentrations (E. coli AmpC MOX2) [mM]	IC50 [1] [nM]	IC50 [2] [nM]	IC50 [3] [nM]	IC50 [5] [nM]	further results
C[N+](C)(C)CCO.[Cl-] [[Cholin][Cl]]	>5	>5	2.5	>5	>5	>5	>5	>5					
CCn1cc[n+](C)c1.[Br-] [[EMIM][Br]]	>5	>5	0.05	>5	5	>5	5	>5					
CC[N+](CC)(CC)CC [[TEA][Br], Tetraethylammonium bromide]													MIC (E. coli ATCC 25922; Escherichia coli, ATCC25922, read-out: Minimum inhibitory concentrations): > 5 mM; MIC (K. pneumoniae; Klebsiella pneumoniae, read-out: Minimum inhibitory concentrations): > 5 mM; MIC (S. aureus ATCC 25923; Staphylococcus aureus, ATCC25923, read-out: Minimum inhibitory concentrations): 2.5 mM; MIC (E. fecalis; Enterococcus, read-out: Minimum inhibitory concentrations): > 5 mM; MIC (S. epidermis; Staphylococcus epidermidis, read-out: Minimum inhibitory concentrations): > 5 mM; MIC (E. coli CTX M2; Escherichia coli, CTXM2, read-out: Minimum inhibitory concentrations): 2.5 mM; MIC (E. coli TEM CTX M9; Escherichia coli, read-out: Minimum inhibitory concentrations): > 5 mM; MIC (E. coli AmpC MOX2; Escherichia coli, AMPCMOX2, read-out: Minimum inhibitory concentrations, E. coli AmpC MOX2, ampicillin resistant): > 5 mM
CC1(C)S[C@@H]2[C@H](NC(=O)[C@H](N)c3ccccc3)C(=O)N2[C@H]1C(=O)[O-].CCCCCCCCCCCCCCCC[n+]1ccccc1 [[C16Pyr][Amp]]	0.5	0.05	0.005	0.005	0.005	0.05	0.005	>5	12	11	226		IC50 (SF (skin fibroblasts)): 32 nM; IC50 ([4]; T47D, MTT assay): 5 nM
CC1(C)S[C@@H]2[C@H](NC(=O)[C@H](N)c3ccccc3)C(=O)N2[C@H]1C(=O)[O-].CC[n+]1ccn(C)c1 [[EMIM][Amp]]	>5	>5	>5	>5	>5	>5	>5	>5	853		269	30000	
CCCCCCCCCCCCCC[P+](CCCCCC)(CCCCCC)CCCCCC.[Cl-] [[P6,6,6,14][Cl]]	2.5	2.5	2.5	>5	2.5	5	2.5	>5					
CC1(C)S[C@@H]2[C@H](NC(=O)[C@H](N)c3ccccc3)C(=O)N2[C@H]1C(=O)[O-].C[N+](C)(C)CCO [[Cholin][Amp]]	>5	>5	>5	>5	>5	>5	>5	>5		17		982	IC50 (SF (skin fibroblasts)): 48500 nM; IC50 [6]: 1620 nM
CCCCCCCCCCCCCCCC[n+]1ccccc1.[Cl-] [[C16Pyr][Cl]]	0.5	2.5	0.5	0.5	2.5	>5	0.5	>5					
CC1(C)S[C@@H]2[C@H](NC(=O)[C@H](N)c3ccccc3)C(=O)N2[C@H]1C(=O)[O-].C[n+]1ccn(CCO)c1 [[C2OHMIM][Amp]]	5	>5	>5	5	2.5	>5	>5	5	462	738	359		IC50 (SF (skin fibroblasts)): 5080 nM; IC50 [6]: 319 nM; IC50 ([4]; T47D, MTT assay): 146 nM
CC1(C)S[C@@H]2[C@H](NC(=O)[C@H](N)c3ccccc3)C(=O)N2[C@H]1C(=O)[O-].CC[N+](CC)(CC)CC [[TEA][Amp], tetraethyl ammonium salt of Ampicillin]	>5	>5	>5	>5	>5	>5	>5	>5		30	56700	35600	IC50 [4]: 42 nM
C[n+]1ccn(CCO)c1.[Cl-] [[C2OHMIM][Cl]]	5	>5	>5	5	5	2.5	>5	5					
CC1(C)S[C@@H]2[C@H](NC(=O)[C@H](N)c3ccccc3)C(=O)N2[C@H]1C(=O)[O-].[Na+] [[Na][Amp]] [sodium ampicillin]	0.05	2.5	0.005	0.05	0.05	>5	>5	>5	109000		2410	597	
